system: HEK293 cells; assay: Preliminary screening as DNA vectors, GFP transfection of HEK293 cells; type: cell-based; conditions: amino lipid/DOPE liposome with 75 ng plasmid DNA (psin-EGFP-IRES-Puro); number of GFP-expressing cells divided by total nuclei (Hoechst)
Experimental: Cell line: HEK293 cells (ATCC CRL-1573™)
Medium: DMEM supplemented with 10% fetal bovine serum (Invitrogen)
Mode of screening: cell transfection on 96-well plates
Detection (readout): percentage of the number of GFP fluorescent cells relative to the total number of cells (the total number of cells was measured using nucleus dye Hoechst—see FIG. 2). Lipofectamine2000 (Invitrogen) was used as positive control, according to the manufacturer's instructions.
Method: an 8-channel pipette was used for sample addition. The contents shown were for a single well of a 96-well flat plate.
1. The compound (0.01 mmol) prepared in Example 1 was dissolved in 1 mL of anhydrous ethanol. After ultrasonically dissolved, 10 μL of the resultant amino lipid solution in ethanol was taken and mixed with 5 μL of DOPE solution in ethanol (0.01 m), and then to the obtained mixture was added 35 μL of 0.2M sodium acetate buffer (pH 5.6), and 50 μL of liposome solution was prepared by vortex at a constant rotating speed for 30 s. 4 μL was taken from the 50 μL liposome solution and added to 46 μL of 0.02M sodium acetate buffer (pH 5.6), and the final liposome solution was formed by vortex at a constant rotating speed for 30 s. 5 μL was taken from the final liposome solution and mixed with 75 ng plasmid DNA (psin-EGFP-IRES-Puro, Clontech) dissolved in 5 μL of 0.02 M sodium acetate buffer, and was allowed to stay at room temperature for 30 min to form a lipid/DNA transfection complex.
2. 10 μL of the lipid/DNA transfection complex was incubated at room temperature for 30 min, followed by addition of 90 μL of fresh resuspended cells (3-5×10^4 cells) and mixing with a pipette. 100 μL of cells+lipid/DNA complex was transferred to separate wells of a 96-well culture plate immediately, and placed in an incubator containing 5% CO2 at 37° C.
3. Hoechst33258 (Invitrogen) was added at a final concentration of 0.2 μg/mL to the cells 20 to 24 hours after initial cell transfection, and cultured in darkness at 37° C. for 15 min. Afterwards, the cells were washed once with a PBS solution, and then added with medium for culture for 20 to 24 h.
4. The cells were placed in a high-throughput confocal microscope (Molecular Devices ImageXpress), and four visual fields of the image of the cells were captured for each well, and images at three laser wavelengths were captured for each sample: bright field images of cells (FIG. 2(a) and FIG. 2(b)), Hoechst-staining images showing total nuclei (FIG. 2(c) and FIG. 2(d)) and GFP images showing success in transfection with the plasmid DNA and the expression of GFP (FIG. 2(e) and FIG. 2(f)). MetaXpress software was used to separately count the cells in the Hoechst-staining images and GFP images, and then the number of cells expressing GFP was divided by the total number of nuclei to give the absolute cell transfection efficiency. The absolute transfection efficiency was calculated as follows: […]

Row | Compound | Absolute DNA transfection efficiency in HEK293 cells
1 | CCCCCCCCCCCCCCCCCCSc1nc(NCCCCCCCCCCCC)nc(NCCN2CCCC2)n1 [S18N12 D3] | 1.8%
2 | CCCCCCCCCCCCCCCCNc1nc(NCCN2CCOCC2)nc(SCCCCCCCCCCC)n1 [S11N16 D2] | 3.5%
3 | CCCCCCNc1nc(NCCCN2CCOCC2)nc(SCCCCCC)n1 [S6N6 D8] | 0.0%
4 | CCCCCCCCCSc1nc(NCCN2CCOCC2)nc(SCCCCCCCC)n1 [S8S9 D2] | 37.0%
5 | CCCCCCCCSc1nc(NCC2CCN(C)CC2)nc(SCCCCCC)n1 [S6S8 D10] | 24.1%
6 | CCCCCCCCCCCCN(CCCCCCCCCCCC)c1nc(NCC2CCN(C)CC2)nc(SCCCCCCCC)n1 [S8^2N12 D10] | 0.8%
7 | CCCCCCCCCCCCCCCNc1nc(NCCN2CCCC2)nc(SCCCCCC)n1 [S6N15 D3] | 15.9%
8 | CCCCCCCCCCCNc1nc(NCCN2CCOCC2)nc(SCCCCCCCC)n1 [S8N11 D2] | 25.4%
9 | CCCCCCCCCCCCN(CCCCCCCCCCCC)c1nc(NCCN2CCCC2)nc(SCCCCCC)n1 [S6^2N12 D3] | 0.1%
10 | CCCCCCCCCCCCCCSc1nc(NCCCCCCCCCCCC)nc(NCCN(CC)CC)n1 [S14N12 D7] | 1.1%
11 | CCCCCCCCCCCCCCCNc1nc(NCCN2CCOCC2)nc(SCCCCCC)n1 [S6N15 D2] | 2.0%
12 | CCCCCCCCCCCCNc1nc(NCCN2CCCC2)nc(SCCCCCC)n1 [S6N12 D3] | 6.2%
13 | CCCCCCCCCCCCCCCCCCNc1nc(NCCCN2CCN(C)CC2)nc(SCCCCCCCCCC)n1 [S10N18 D9] | 3.3%
14 | CCCCCCCCCCCCN(CCCCCCCCCCCC)c1nc(NCCN2CCCC2)nc(SCCCCCCCCCCC)n1 [S11^2N12 D3] | 0.0%
15 | CCCCCCCCCCCCCCCNc1nc(NCCCN2CCOCC2)nc(SCCCCCCCCCC)n1 [S10N15 D8] | 5.1%
16 | CCCCCCCCCCCCCCCCCCNc1nc(NCCCN2CCOCC2)nc(SCCCCCC)n1 [S6N18 D8] | 8.1%
17 | CCCCCCCCCCCCSc1nc(NCCCCCCCCCCC)nc(NCCN2CCOCC2)n1 [S12N11 D2] | 0.3%
18 | CCCCCCCCNc1nc(NCCN(CC)CC)nc(SCCCCCCCC)n1 [S8N8 D7] | 5.2%
19 | CCCCCCCCCCCCCCCSc1nc(NCCCN2CCN(C)CC2)nc(SCCCCCCC)n1 [S7S15 D9] | 1.6%
20 | CCCCCCCCCCCCCCSc1nc(NCCN2CCCC2)nc(SCCCCCC)n1 [S6S14 D3] | 9.2%

Row | Compound | Absolute DNA transfection efficiency in HEK293 cells
21 | CCCCCCCCCCCCN(CCCCCCCCCCCC)c1nc(NCCN2CCCC2)nc(SCCCCCCCCC)n1 [S9^2N12 D3] | 0.0%
22 | CCCCCCCCCCCCCNc1nc(NCCN2CCN(C)CC2)nc(SCCCCCCCCC)n1 [S9N13 D5] | 27.9%
23 | CCCCCCCCCCCCCCCCCCNc1nc(NCCN2CCOCC2)nc(SCCCCCCCCCCCCCCCCCC)n1 [S18N18 D2] | 0.1%
24 | CCCCCCCCCCCCCCCCNc1nc(NCC2CCN(C)CC2)nc(SCCCCCCCCCCCCCCCC)n1 [S16N16 D10] | 0.2%
25 | CCCCCCSc1nc(NCCN(C)C)nc(SCCCCCC)n1 [S6S6 D1] | 1.1%
26 | CCCCCCCCCCCCCCCCSc1nc(NCCN2CCOCC2)nc(SCCCCCCC)n1 [S7S16 D2] | 17.6%
27 | CCCCCCCCCNc1nc(NCCN2CCCCC2)nc(SCCCCCCC)n1 [S7N9 D4] | 13.0%
28 | CCCCCCCCCCCCCCCSc1nc(NCCCCCCCCC)nc(NCCN2CCOCC2)n1 [S15N9 D2] | 9.7%
29 | CCCCCCCCCCCCCCCCCCNc1nc(NCCN2CCCC2)nc(SCCCCCCC)n1 [S7N18 D3] | 16.1%
30 | CCCCCCCCCSc1nc(NCCCCCCCC)nc(NCCN(CC)CC)n1 [S9N8 D7] | 15.7%
31 | CCCCCCCCCSc1nc(NCCN(CC)CC)nc(SCCCCCCC)n1 [S7S9 D7] | 14.5%
32 | CCCCCCCCCCCCCCCCNc1nc(NCCN(CC)CC)nc(SCCCCCCCCCCC)n1 [S11N16 D7] | 1.7%
33 | CCCCCCCCCCCCCCCNc1nc(NCCN2CCOCC2)nc(SCCCCCCCCCCC)n1 [S11N15 D2] | 1.3%
34 | CCCCCCCCCCCCN(CCCCCCCCCCCC)c1nc(NCCN2CCCC2)nc(SCCCCCCCC)n1 [S8^2N12 D3] | 0.1%
35 | CCCCCCCCCCSc1nc(NCCCCCC)nc(NCCCN2CCOCC2)n1 [S10N6 D8] | 0.6%
36 | CCCCCCCCCCCCCCCCCCNc1nc(NCCN2CCN(C)CC2)nc(SCCCCCCCCCC)n1 [S10N18 D5] | 1.8%
37 | CCCCCCCCCCCCCCSc1nc(NCCCCCCCCC)nc(NCCN2CCOCC2)n1 [S14N9 D2] | 9.7%
38 | CCCCCCCCCCCCSc1nc(NCCCCCCCCC)nc(NCCN(C)C)n1 [S12N9 D1] | 4.5%
39 | CCCCCCCCCCSc1nc(NCCCCCC)nc(NCCN(C)C)n1 [S10N6 D1] | 6.9%
40 | CCCCCCCCCCCCNc1nc(NCCN2CCCCC2)nc(SCCCCCCC)n1 [S7N12 D4] | 9.7%

Row | Compound | Absolute DNA transfection efficiency in HEK293 cells
41 | CCCCCCCCCCCCCCCCCCSc1nc(NCCN(CC)CC)nc(SCCCCCC)n1 [S6S18 D7] | 6.4%
42 | CCCCCCCCCCCCCCCCCCSc1nc(NCCCCCCCCCCCCCCC)nc(NCCN2CCN(C)CC2)n1 [S18N15 D5] | 0.0%
43 | CCCCCCCCCCCCSc1nc(NCCN2CCN(C)CC2)nc(N(CCCCCCCCCCCC)CCCCCCCCCCCC)n1 [S12^2N12 D5] | 0.3%
44 | CCCCCCCCCCCCCCCNc1nc(NCCN2CCN(C)CC2)nc(SCCCCCCCCCCC)n1 [S11N15 D5] | 9.9%
45 | CCCCCCCCCCCCCCCCCCNc1nc(NCCCN2CCN(C)CC2)nc(SCCCCCCC)n1 [S7N18 D9] | 4.2%
46 | CCCCCCCCSc1nc(NCCN(CC)CC)nc(SCCCCCCC)n1 [S7S8 D7] | 5.8%
47 | CCCCCCCCCCCCCCSc1nc(NCCCCCCCCCCCC)nc(NCCN2CCOCC2)n1 [S14N12 D2] | 1.6%
48 | CCCCCCCCCCCCCCCCNc1nc(NCCN2CCN(C)CC2)nc(SCCCCCCCCCCC)n1 [S11N16 D5] | 6.8%
49 | CCCCCCCCCCCCCCCCNc1nc(NCCN2CCCC2)nc(SCCCCCCCCCCCC)n1 [S12N16 D3] | 2.6%
50 | CCCCCCCCCCSc1nc(NCCCCCCCC)nc(NCCN2CCCC2)n1 [S10N8 D3] | 3.9%
51 | CCCCCCCCCCCCCCCCNc1nc(NCCN2CCCCC2)nc(SCCCCCCCCCC)n1 [S10N16 D4] | 4.4%
52 | CCCCCCCCCCCCCCSc1nc(NCCCCCCCC)nc(NCCCN(C)C)n1 [S14N8 D6] | 33.4%
53 | CCCCCCCCCCCCSc1nc(NCC2CCN(C)CC2)nc(SCCCCCCCC)n1 [S8S12 D10] | 23.5%
54 | CCCCCCCCCCCCSc1nc(NCCCCCCCC)nc(NCCCN2CCN(C)CC2)n1 [S12N8 D9] | 8.9%
55 | CCCCCCCCCCCCCCCCNc1nc(NCCCN2CCOCC2)nc(SCCCCCCCCCCCC)n1 [S12N16 D8] | 0.0%
56 | CCCCCCCCCCCCCCCCSc1nc(NCCCCCCCCCCC)nc(NCCN(CC)CC)n1 [S16N11 D7] | 15.5%
57 | CCCCCCCCCCCCSc1nc(NCCCCCCCCC)nc(NCCN(CC)CC)n1 [S12N9 D7] | 0.8%
58 | CCCCCCCCCCCCCCCCCCNc1nc(NCCCN2CCOCC2)nc(SCCCCCCCCCCC)n1 [S11N18 D8] | 4.4%
